Assay results taken from the supplement of paper PMC10307832.

Columns and labels:
Assay in all cases: relative viability (nuclei count vs DMSO), 5 days (fraction); higher = more cells survive
[1] = compound: CC1=CC(=CC=C1)NC2=NC(=CS2)C3=CC=NC=C3 + Cc1cc(Nc2cc(N3CCN(C)CC3)nc(Sc3ccc(NC(=O)C4CC4)cc3)n2)n[nH]1 [Tozasertib] (partner 0.1 µM)
Summary of the method: (§1)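 Values are medians from duplicate plates. Each reflects relative viability, defined as the nuclei count of treated wells over that of vehicle wells. Lung cancer cell lines in 1536-well plates were pin-tool dosed one day after seeding with one drug alone or with a fixed anchor-drug dose plus five library-drug doses (not always all listed) in √10 steps, then fixed, stained and imaged at 4× after 5 days.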

[2] = compound: CC1=CC(=CC=C1)NC2=NC(=CS2)C3=CC=NC=C3 + COc1cccc2cc(-c3nc([C@H]4CC[C@H](C(=O)O)CC4)n4ncnc(N)c34)[nH]c12 [OSI-027] (partner 0.5 µM)
Summary of the method: as §1

[3] = compound: Cc1ccc(NC(=O)c2ccc(CN3CCN(C)CC3)cc2)cc1Nc1nc(-c2cccnc2)cs1 [Masitinib] + Cc1nc(NC(=O)N2CCC[C@H]2C(N)=O)sc1-c1ccnc(C(C)(C)C(F)(F)F)c1 [Alpelisib] (partner 2 µM)
Summary of the method: as §1

[4] = compound: CC1=CC(=CC=C1)NC2=NC(=CS2)C3=CC=NC=C3 + NC(=O)Nc1cc(-c2cccc(F)c2)sc1C(=O)N[C@H]1CCCNC1 [AZD7762] (partner 0.2 µM)
Summary of the method: as §1

Cell Line | relative viability ([1]; first compound 0.08 µM) | relative viability ([1]; first compound 0.253 µM) | relative viability ([1]; first compound 0.8 µM) | relative viability ([1]; first compound 2.53 µM) | relative viability ([1]; first compound 8 µM) | relative viability ([2]; first compound 0.08 µM) | relative viability ([2]; first compound 0.253 µM) | relative viability ([2]; first compound 0.8 µM) | relative viability ([2]; first compound 2.53 µM) | relative viability ([2]; first compound 8 µM) | relative viability ([3]; first compound 0.01 µM) | relative viability ([3]; first compound 0.03162 µM) | relative viability ([3]; first compound 0.1 µM) | relative viability ([3]; first compound 0.3162 µM) | relative viability ([3]; first compound 1 µM) | relative viability ([4]; first compound 0.08 µM) | relative viability ([4]; first compound 0.253 µM) | relative viability ([4]; first compound 0.8 µM) | relative viability ([4]; first compound 2.53 µM) | relative viability ([4]; first compound 8 µM)
NCI-H2126 | 0.77 | 0.756 | 0.798 | 0.686 | 0.737 | 0.608 | 0.582 | 0.674 | 0.631 | 0.651 | 0.802 | 0.766 | 0.832 | 0.661 | 0.712 | 0.967 | 1.09 | 1.06 | 0.95 | 0.981
BEN | 0.437 | 0.557 | 0.512 | 0.479 | 0.563 | 0.304 | 0.281 | 0.295 | 0.304 | 0.322 | 1.21 | 0.901 | 1.3 | 1.34 | 0.945 | 0.641 | 0.614 | 0.662 | 0.566 | 0.659
LCLC-103H | 0.529 | 0.405 | 0.427 | 0.429 | 0.388 | 0.389 | 0.448 | 0.422 | 0.462 | 0.342 | 0.711 | 0.913 | 0.917 | 0.992 | 0.971 | 0.73 | 0.755 | 0.725 | 0.74 | 0.651
EKVX | 0.45 | 0.395 | 0.36 | 0.384 | 0.294 | 0.538 | 0.699 | 0.619 | 0.628 | 0.636 | – | 0.779 | 0.786 | 0.706 | 0.944 | 0.63 | 0.703 | – | 0.764 | 0.524
ABC-1 | 0.206 | 0.173 | 0.176 | 0.187 | 0.237 | 0.369 | 0.427 | 0.493 | 0.421 | 0.319 | 1.26 | 1.04 | 1.01 | 0.813 | 1.01 | 0.675 | 0.613 | 0.688 | 0.628 | 0.881
NCI-H1651 | 0.62 | 0.684 | 0.561 | 0.531 | 0.51 | 0.71 | 0.649 | 0.77 | 0.75 | 0.737 | 0.841 | 1.01 | 0.99 | 0.947 | 1 | 0.5 | 0.473 | 0.416 | 0.426 | 0.366
NCI-H2087 | 0.197 | 0.229 | 0.245 | 0.19 | 0.216 | 0.499 | 0.543 | 0.554 | 0.673 | 0.639 | 1.07 | 1.05 | 1.19 | 1.15 | 1.08 | 1.41 | 1.29 | 1.14 | 1.43 | 1.17
NCI-H1944 | 0.291 | 0.24 | 0.226 | 0.203 | 0.178 | 0.374 | 0.36 | 0.384 | 0.329 | 0.39 | – | 0.78 | 0.925 | 0.699 | 0.84 | 0.401 | 0.552 | 0.706 | 0.527 | 0.47
